In patent US20230295096A1, “PYRAZOLE CARBOXAMIDE COMPOUNDS FOR TREATMENT OF HBV” (ASSEMBLY BIOSCIENCES, INC., priority 2020, published 2023):
Like-named read-outs stand apart in the source and are kept apart here.

Tested on: HBV
Assay: Viral load production from HepAD38 cells, qPCR of the HBV core sequence in supernatant
Type: cell-based
Settings: HepAD38 cells, 5 days, HBV DNA in supernatant by qPCR, Table 1 ranges, read-out: Activity (viral load lowering EC50)
Procedure, shortened: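 EC50 and CC50 come from four-parameter logistic fits of supernatant HBV core DNA (TaqMan qPCR, DNA standards, compared with DMSO wells) and of CellTiter-Glo luminescence.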

[1] = Hepatitis B virus, HePAD38, 120 h

`Cn1cc(C(F)(F)F)nc1C1(O)CC2CC(c3nn(C)c(N)c3C(=O)Nc3ccc(F)c(Cl)c3)CC2C1` (centres unmarked) [Example 163] showed an EC50 [1] of 10 to 50 nM.

For `Cn1nc(C2CC3CC(O)(c4sc(C(F)(F)F)nc4Br)CC3C2)c(C(=O)Nc2ccc(F)c(Cl)c2)c1N` (centres unmarked) [Example 151], the EC50 [1] was 50 to 500 nM.

Work on `Cn1nc(C2CC3CC(CNC(=O)C(C)(C)C(F)(F)F)CC3C2)c(C(=O)Nc2ccc(F)c(Cl)c2)c1N` (centres unmarked) [Example 66, 5-Amino-N-(3-chloro-4-fluorophenyl)-1-methyl-3-(5-((3,3,3-trifluoro-2,2-dimethylpropanamido)methyl)octahydropentalen-2-yl)-1H-pyrazole-4-carboxamide] yielded an EC50 [1] of 10 to 50 nM.

Compound `Cn1nc(C2CC3CN(c4cnc(C(F)(F)F)cn4)CC3C2)c(C(=O)Nc2ccc(F)c(Cl)c2)c1N` (centres unmarked) [Example 135, 5-Amino-N-(3-chloro-4-fluorophenyl)-1-methyl-3-(2-(5-(trifluoromethyl)pyrazin-2-yl)octahydrocyclopenta[c]pyrrol-5-yl)-1H-pyrazole-4-carboxamide] has an EC50 [1] of 50 to 500 nM.

`Cn1nnnc1C1(O)CC2CC(c3nn(C)c(N)c3C(=O)Nc3ccc(F)c(Cl)c3)CC2C1` (centres unmarked) [Example 172] showed an EC50 [1] of 10 to 50 nM.

Compound `Cn1nc(C2CC3CC(CNC(=O)C(C)(C)C4CCNCC4)CC3C2)c(C(=O)Nc2ccc(F)c(Cl)c2)c1N` (centres unmarked) [Example 79, 5-Amino-N-(3-chloro-4-fluorophenyl)-1-methyl-3-(5-((2-methyl-2-(piperidin-4-yl)propanamido)methyl)octahydropentalen-2-yl)-1H-pyrazole-4-carboxamide] has an EC50 [1] of 50 to 500 nM.

With `Cn1nc(C2CC3CC(O)(c4cc(N)nn4C4CC4)CC3C2)c(C(=O)Nc2ccc(F)c(Cl)c2)c1N` (centres unmarked) [Example 215] the EC50 [1] was less than 10 nM.

Compound `C[C@H](NC1CC2CC(c3nn(C)c(N)c3C(=O)Nc3ccc(F)c(Cl)c3)CC2C1)C(F)(F)F` (stereo partly drawn) [Example 100, 5-Amino-N-(3-chloro-4-fluorophenyl)-1-methyl-3-(5-(((S)-1,1,1-trifluoropropan-2-yl)amino)octahydropentalen-2-yl)-1H-pyrazole-4-carboxamide] has an EC50 [1] of 10 to 50 nM.

Work on `C[C@@H](NC1CC2CC(c3nn(C)c(N)c3C(=O)Nc3ccc(F)c(Cl)c3)CC2C1)C(F)(F)F` (stereo partly drawn) [Example 99, 5-Amino-N-(3-chloro-4-fluorophenyl)-1-methyl-3-(5-(((R)-1,1,1-trifluoropropan-2-yl)amino)octahydropentalen-2-yl)-1H-pyrazole-4-carboxamide] yielded an EC50 [1] of 10 to 50 nM.

`Cn1nc(C2CC3CC(O)(c4ncc(C(F)(F)F)s4)CC3C2)c(C(=O)Nc2ccc(F)c(Cl)c2)c1N` (centres unmarked) [Example 148] showed an EC50 [1] of 10 to 50 nM.

In the case of `Cc1ccc(S(=O)(=O)CC2(O)CC3CC(c4nn(C)c(N)c4C(=O)Nc4ccc(F)c(Cl)c4)CC3C2)cn1` (centres unmarked) [Example 162], the EC50 [1] is reported as less than 10 nM.

Work on `Cn1nc(C2CC3CC(CNC(=O)C(C)(C)C4CCN(C(=O)OC(C)(C)C)CC4)CC3C2)c(C(=O)Nc2ccc(F)c(Cl)c2)c1N` (centres unmarked) [Example 70, tert-Butyl 4-(1-(((5-(5-amino-4-((3-chloro-4-fluorophenyl)carbamoyl)-1-methyl-1H-pyrazol-3-yl)octahydropentalen-2-yl)methyl)amino)-2-methyl-1-oxopropan-2-yl)piperidine-1-carboxylate] yielded an EC50 [1] of 10 to 50 nM.

Compound `Cn1nc(C2CC3CC(O)(c4c(Cl)cnn4C)CC3C2)c(C(=O)Nc2ccc(F)c(Cl)c2)c1N` (centres unmarked) [Example 208] has an EC50 [1] of less than 10 nM.

Compound `Cn1nc(C2CC3CC(Oc4ncccn4)CC3C2)c(C(=O)Nc2ccc(F)c(Cl)c2)c1N` (centres unmarked) [Example 231] has an EC50 [1] of 10 to 50 nM.

`Cn1nc(C2CC3CC(CNS(=O)(=O)C4CCCC4)CC3C2)c(C(=O)Nc2ccc(F)c(Cl)c2)c1N` (centres unmarked) [Example 92, 5-Amino-N-(3-chloro-4-fluorophenyl)-3-(5-(cyclopentanesulfonamidomethyl)octahydropentalen-2-yl)-1-methyl-1H-pyrazole-4-carboxamide] was tested, and the EC50 [1] was 10 to 50 nM.

In the case of `Cn1cc(C2(O)CC3CC(c4nn(C)c(N)c4C(=O)Nc4ccc(F)c(Cl)c4)CC3C2)c(C(F)(F)F)n1` (centres unmarked) [Example 220], the EC50 [1] is reported as less than 10 nM.

In the case of `Cn1nc(C2CC3CC(O)(c4ncc(C(F)(F)F)n4C)CC3C2)c(C(=O)Nc2ccc(F)c(Cl)c2)c1N` (centres unmarked) [Example 167], the EC50 [1] is reported as 10 to 50 nM.

In the case of `Cn1nc(C2CC3CC4(CNC(=O)N4)CC3C2)c(C(=O)Nc2ccc(F)c(Cl)c2)c1N` (centres unmarked) [Example 114, 5-Amino-N-(3-chloro-4-fluorophenyl)-1-methyl-3-(2-oxohexahydro-1′H-spiro[imidazolidine-4,2′-pentalen]-5′-yl)-1H-pyrazole-4-carboxamide], the EC50 [1] is reported as 50 to 500 nM.

In the case of `CC(NC(=O)N1CC2CC(c3nn(C)c(N)c3C(=O)Nc3ccc(F)c(Cl)c3)CC2C1)C(F)(F)F` (single isomer, unassigned) [Example 129, 5-(5-Amino-4-((3-chloro-4-fluorophenyl)carbamoyl)-1-methyl-1H-pyrazol-3-yl)-N-(1,1,1-trifluoropropan-2-yl)hexahydrocyclopenta[c]pyrrole-2(1H)-carboxamide], the EC50 is reported as 50 to 500 nM.

Work on `CCS(=O)(=O)NCC1CC2CC(c3nn(C)c(N)c3C(=O)Nc3ccc(F)c(Cl)c3)CC2C1` (centres unmarked) [Example 87, 5-Amino-N-(3-chloro-4-fluorophenyl)-3-(5-(ethylsulfonamidomethyl)octahydropentalen-2-yl)-1-methyl-1H-pyrazole-4-carboxamide] yielded an EC50 [1] of less than 10 nM.

With `Cn1nc(C2CC3CC(O)(c4ccc(Cl)cc4)CC3C2)c(C(=O)Nc2ccc(F)c(Cl)c2)c1N` (centres unmarked) [Example 3, 5-Amino-N-(3-chloro-4-fluorophenyl)-3-(5-(4-chlorophenyl)-5-hydroxyoctahydropentalen-2-yl)-1-methyl-1H-pyrazole-4-carboxamide] the EC50 [1] was 10 to 50 nM.

`Cn1nc(C2CC3CN(c4c(Cl)cncc4Cl)CC3C2)c(C(=O)Nc2ccc(F)c(Cl)c2)c1N` (centres unmarked) [Example 136, 5-Amino-N-(3-chloro-4-fluorophenyl)-3-(2-(3,5-dichloropyridin-4-yl)octahydrocyclopenta[c]pyrrol-5-yl)-1-methyl-1H-pyrazole-4-carboxamide] gave an EC50 [1] of 50 to 500 nM.

`COC(=O)C12CCC(C(=O)NCC3CC4CC(c5nn(C)c(N)c5C(=O)Nc5ccc(F)c(Cl)c5)CC4C3)(CC1)CC2` (centres unmarked) [Example 77, Methyl 4-(((5-(5-amino-4-((3-chloro-4-fluorophenyl)carbamoyl)-1-methyl-1H-pyrazol-3-yl)octahydropentalen-2-yl)methyl)carbamoyl)bicyclo[2.2.2]octane-1-carboxylate] gave an EC50 [1] of 50 to 500 nM.

For `Cn1nc(C2CC3C=C(c4ccn[nH]4)CC3C2)c(C(=O)Nc2ccc(F)c(Cl)c2)c1N` (centres unmarked) [Example 197], the EC50 [1] was less than 10 nM.

Work on `Cc1cc(C2(O)CC3CC(c4nn(C)c(N)c4C(=O)Nc4ccc(F)c(Cl)c4)CC3C2)n(C)n1` (centres unmarked) [Example 217] yielded an EC50 [1] of less than 10 nM.

Work on `Cn1nc(C2CC3CC(O)(CNc4ncc(C(F)F)cn4)CC3C2)c(C(=O)Nc2ccc(F)c(Cl)c2)c1N` (single isomer, unassigned) [Example 202A] yielded an EC50 of 10 to 50 nM.

Compound `CNC(=O)NCC1CC2CC(c3nn(C)c(N)c3C(=O)Nc3ccc(F)c(Cl)c3)CC2C1` (centres unmarked) [Example 49, 5-Amino-N-(3-chloro-4-fluorophenyl)-1-methyl-3-(5-((3-methylureido)methyl)octahydropentalen-2-yl)-1H-pyrazole-4-carboxamide] has an EC50 [1] of less than 10 nM.

`CC1CCC(C(=O)NCC2CC3CC(c4nn(C)c(N)c4C(=O)Nc4ccc(F)c(Cl)c4)CC3C2)CC1` (centres unmarked) [Example 51, 5-Amino-N-(3-chloro-4-fluorophenyl)-1-methyl-3-(5-((4-methylcyclohexane-1-carboxamido)methyl)octahydropentalen-2-yl)-1H-pyrazole-4-carboxamide] showed an EC50 [1] of 10 to 50 nM.

In the case of `Cn1nc(C2CC3CC(O)(c4[nH]nc(C(F)(F)F)c4Br)CC3C2)c(C(=O)Nc2ccc(F)c(Cl)c2)c1N` (centres unmarked) [Example 224], the EC50 [1] is reported as 10 to 50 nM.

In the case of `Cn1nc(C2CC3CC(N4CC=C(C(N)=O)CC4)CC3C2)c(C(=O)Nc2ccc(F)c(Cl)c2)c1N` (centres unmarked) [Example 189], the EC50 [1] is reported as 10 to 50 nM.

`Cn1nc(C2CC3CC(CNC(=O)C4(C)COC4)CC3C2)c(C(=O)Nc2ccc(F)c(Cl)c2)c1N` (centres unmarked) [Example 64, 5-Amino-N-(3-chloro-4-fluorophenyl)-1-methyl-3-(5-((3-methyloxetane-3-carboxamido)methyl)octahydropentalen-2-yl)-1H-pyrazole-4-carboxamide] gave an EC50 [1] of less than 10 nM.

Compound `CN(C)C(=O)NCC1CC2CC(c3nn(C)c(N)c3C(=O)Nc3ccc(F)c(Cl)c3)CC2C1` (single isomer, unassigned) [Example 43, 5-Amino-N-(3-chloro-4-fluorophenyl)-3-(5-((3,3-dimethylureido)methyl)octahydropentalen-2-yl)-1-methyl-1H-pyrazole-4-carboxamide] has an EC50 of less than 10 nM.

`Cn1nc(C2CC3CC(O)(Cc4ccccn4)CC3C2)c(C(=O)Nc2ccc(F)c(Cl)c2)c1N` (centres unmarked) [Example 164] gave an EC50 [1] of 10 to 50 nM.

`Cn1nc(C2CC3CC(CNS(=O)(=O)C4CCC4)CC3C2)c(C(=O)Nc2ccc(F)c(Cl)c2)c1N` (centres unmarked) [Example 91, 5-Amino-N-(3-chloro-4-fluorophenyl)-3-(5-(cyclobutanesulfonamidomethyl)octahydropentalen-2-yl)-1-methyl-1H-pyrazole-4-carboxamide] showed an EC50 [1] of 10 to 50 nM.

With `Cn1nc(C2CC3CC(O)(c4cc(F)cc(F)c4)CC3C2)c(C(=O)Nc2ccc(F)c(Cl)c2)c1N` (centres unmarked) [Example 11, 5-Amino-N-(3-chloro-4-fluorophenyl)-3-(5-(3,5-difluorophenyl)-5-hydroxyoctahydropentalen-2-yl)-1-methyl-1H-pyrazole-4-carboxamide] the EC50 [1] was 10 to 50 nM.

Work on `C[C@H](NC(=O)C1CC2CC(c3nn(C)c(N)c3C(=O)Nc3ccc(F)c(Cl)c3)CC2C1)C(F)(F)F` (single isomer, unassigned) [Example 103] yielded an EC50 [1] of 10 to 50 nM.

In the case of `Cn1nc(C2CC3CC(O)(c4cn[nH]n4)CC3C2)c(C(=O)Nc2ccc(F)c(Cl)c2)c1N` (centres unmarked) [Example 173], the EC50 [1] is reported as 10 to 50 nM.

`Cn1nc(C2CC3CC(CNC(=O)C45CCN(CC4)CC5)CC3C2)c(C(=O)Nc2ccc(F)c(Cl)c2)c1N` (centres unmarked) [Example 78, N-((5-(5-Amino-4-((3-chloro-4-fluorophenyl)carbamoyl)-1-methyl-1H-pyrazol-3-yl)octahydropentalen-2-yl)methyl)quinuclidine-4-carboxamide] showed an EC50 [1] of 50 to 500 nM.
